In paper PMC5218480 (PLoS ONE, 2017):

System: MV-4-11 cells
Experiment: Gene expression microarray analysis (Affymetrix PrimeView) and GSEA
Type: cell-based, human
Set-up: RFU PODN (11730768_x_at) / Fold change /veh PODN (11730768_x_at) / RFU LINC00158 (11744669_a_at) / Fold change /veh LINC00158 (11744669_a_at) / RFU DUSP10 (11751237_a_at) / Fold change /veh DUSP10 (11751237_a_at) / RFU ID3 (11757404_x_at) / Fold change /veh ID3 (11757404_x_at) / RFU PLEKHG5 (11737974_s_at) / Fold change /veh PLEKHG5 (11737974_s_at) / RFU LRRC4B (11730491_at) / Fold change /veh LRRC4B (11730491_at) / RFU GIMAP4 (11747438_a_at) / Fold change /veh GIMAP4 (11747438_a_at) / RFU KRT8 (11758183_x_at) / Fold change /veh KRT8 (11758183_x_at) / RFU CNN1 (11734310_a_at) / Fold change /veh CNN1 (11734310_a_at) / RFU VPS37D (11726825_at) / Fold change /veh VPS37D (11726825_at) / RFU C10orf10 (11716522_x_at) / Fold change /veh C10orf10 (11716522_x_at) / RFU KIR2DL2 /// KIR2DL4 /// KIR2DL5A /// KIR2DL5B /// KIR2DS1 /// KIR2DS2 /// KIR2DS3 /// KIR2DS4 /// KIR3DL3 /// KIR3DL3 /// KIR3DS1 (11738374_at) / Fold change /veh KIR2DL2 /// KIR2DL4 /// KIR2DL5A /// KIR2DL5B /// KIR2DS1 /// KIR2DS2 /// KIR2DS3 /// KIR2DS4 /// KIR3DL3 /// KIR3DL3 /// KIR3DS1 (11738374_at) / RFU C1QL1 (11718748_at) / Fold change /veh C1QL1 (11718748_at) / RFU TMPRSS4 (11747572_a_at) / Fold change /veh TMPRSS4 (11747572_a_at) / RFU HAMP (11756126_x_at) / Fold change /veh HAMP (11756126_x_at) / RFU RNFT2 (11725882_a_at) / Fold change /veh RNFT2 (11725882_a_at) / RFU NR4A2 (11747474_a_at) / Fold change /veh NR4A2 (11747474_a_at) / RFU ABCC12 (11746883_a_at) / Fold change /veh ABCC12 (11746883_a_at) / RFU TMEM136 (11760407_x_at) / Fold change /veh TMEM136 (11760407_x_at) / RFU CLDN22 /// WWC2 (11732394_at) / Fold change /veh CLDN22 /// WWC2 (11732394_at) / RFU HLA-DPB1 (11760878_x_at) / Fold change /veh HLA-DPB1 (11760878_x_at) / RFU SPINT1 (11716480_a_at) / Fold change /veh SPINT1 (11716480_a_at) / RFU GAP43 (11754022_s_at) / Fold change /veh GAP43 (11754022_s_at) / RFU A4GNT (11735810_at) / Fold change /veh A4GNT (11735810_at) / RFU PRB3 (11715151_x_at) / Fold change /veh PRB3 (11715151_x_at) / RFU TUBB4B (11761932_at) / Fold change /veh TUBB4B (11761932_at) / RFU CAPN14 (11732068_a_at) / Fold change /veh CAPN14 (11732068_a_at) / RFU TMCC2 (11721928_a_at) / Fold change /veh TMCC2 (11721928_a_at) / RFU IRGQ (11745062_a_at) / Fold change /veh IRGQ (11745062_a_at) / RFU FAM174B (11720279_a_at) / Fold change /veh FAM174B (11720279_a_at) / RFU TMPRSS4 (11748680_a_at) / Fold change /veh TMPRSS4 (11748680_a_at) / RFU FAM212B (11763350_a_at) / Fold change /veh FAM212B (11763350_a_at) / RFU PLEKHG5 (11743358_a_at) / Fold change /veh PLEKHG5 (11743358_a_at) / RFU ZSCAN30 (11745921_a_at) / Fold change /veh ZSCAN30 (11745921_a_at) / RFU CMKLR1 (11741424_a_at) / Fold change /veh CMKLR1 (11741424_a_at) / RFU LOC101060620 /// MAPK8IP1 (11723275_at) / Fold change /veh LOC101060620 /// MAPK8IP1 (11723275_at) / RFU SPTSSB (11747773_x_at) / Fold change /veh SPTSSB (11747773_x_at) / RFU PRSS12 (11739890_at) / Fold change /veh PRSS12 (11739890_at) / RFU BIN1 (11741810_x_at) / Fold change /veh BIN1 (11741810_x_at) / RFU WNT11 (11732464_a_at) / Fold change /veh WNT11 (11732464_a_at) / RFU C10orf10 (11716521_a_at) / Fold change /veh C10orf10 (11716521_a_at) / RFU C5orf56 (11738089_at) / Fold change /veh C5orf56 (11738089_at) / RFU CYB561 (11721691_x_at) / Fold change /veh CYB561 (11721691_x_at) / RFU ANKRD19P (11752326_a_at) / Fold change /veh ANKRD19P (11752326_a_at) / RFU OR2T12 /// OR2T33 /// OR2T8 (11738714_s_at) / Fold change /veh OR2T12 /// OR2T33 /// OR2T8 (11738714_s_at) / RFU VCAN (11748164_a_at) / Fold change /veh VCAN (11748164_a_at) / RFU JSRP1 (11732532_at) / Fold change /veh JSRP1 (11732532_at) / RFU KRTAP10-11 (11738290_x_at) / Fold change /veh KRTAP10-11 (11738290_x_at) / RFU MYO3A (11730013_a_at) / Fold change /veh MYO3A (11730013_a_at) / RFU EBF3 (11725865_a_at) / Fold change /veh EBF3 (11725865_a_at) / RFU CAMK2N1 (11719241_x_at) / Fold change /veh CAMK2N1 (11719241_x_at) / RFU C5orf56 (11738088_a_at) / Fold change /veh C5orf56 (11738088_a_at) / RFU OLFML3 (11715873_a_at) / Fold change /veh OLFML3 (11715873_a_at) / RFU LOC100653217 /// NTM (11731650_a_at) / Fold change /veh LOC100653217 /// NTM (11731650_a_at) / RFU MAPK11 (11762145_a_at) / Fold change /veh MAPK11 (11762145_a_at) / RFU FIZ1 (11724087_x_at) / Fold change /veh FIZ1 (11724087_x_at) / RFU OASL (11726364_x_at) / Fold change /veh OASL (11726364_x_at) / RFU SOX15 (11748057_x_at) / Fold change /veh SOX15 (11748057_x_at) / RFU CD79A (11719716_a_at) / Fold change /veh CD79A (11719716_a_at) / RFU HIST1H1D (11736915_at) / Fold change /veh HIST1H1D (11736915_at) / RFU CASKIN2 (11723855_a_at) / Fold change /veh CASKIN2 (11723855_a_at) / RFU LOC730098 (11760151_x_at) / Fold change /veh LOC730098 (11760151_x_at) / RFU OR4N2 (11742367_at) / Fold change /veh OR4N2 (11742367_at) / RFU PRRT2 (11749266_a_at) / Fold change /veh PRRT2 (11749266_a_at) / RFU SNX32 (11753110_a_at) / Fold change /veh SNX32 (11753110_a_at) / RFU CDHR5 (11726645_a_at) / Fold change /veh CDHR5 (11726645_a_at) / RFU RCAN1 (11760418_a_at) / Fold change /veh RCAN1 (11760418_a_at) / RFU FAM167A (11723789_a_at) / Fold change /veh FAM167A (11723789_a_at) / RFU FAM26E (11764081_at) / Fold change /veh FAM26E (11764081_at) / RFU ISYNA1 (11749810_s_at) / Fold change /veh ISYNA1 (11749810_s_at) / RFU ACY1 (11761880_at) / Fold change /veh ACY1 (11761880_at) / RFU 11764098_at / Fold change /veh 11764098_at / RFU SAMD14 (11745864_x_at) / Fold change /veh SAMD14 (11745864_x_at) / RFU NPB (11741838_a_at) / Fold change /veh NPB (11741838_a_at) / RFU TMPRSS6 (11731388_a_at) / Fold change /veh TMPRSS6 (11731388_a_at) / RFU KRTAP10-2 (11738614_at) / Fold change /veh KRTAP10-2 (11738614_at) / RFU ARHGAP8 /// PRR5-ARHGAP8 (11727945_x_at) / Fold change /veh ARHGAP8 /// PRR5-ARHGAP8 (11727945_x_at) / RFU KRTAP5-7 /// NADSYN1 (11734609_at) / Fold change /veh KRTAP5-7 /// NADSYN1 (11734609_at) / RFU RASL12 (11751679_a_at) / Fold change /veh RASL12 (11751679_a_at) / RFU CDKN2B (11736163_a_at) / Fold change /veh CDKN2B (11736163_a_at) / RFU PRF1 (11729649_at) / Fold change /veh PRF1 (11729649_at) / RFU, ZNF638 /// ZNF638-IT1 / Fold change vs veh, ZNF638 /// ZNF638-IT1 / RFU, PANK3 / Fold change vs veh, PANK3 / RFU, SH3YL1 / Fold change vs veh, SH3YL1 / RFU, ZEB2 / Fold change vs veh, ZEB2 / RFU, NRIP1 / Fold change vs veh, NRIP1 / RFU, PTTG1IP / Fold change vs veh, PTTG1IP / RFU, CAPN2 / Fold change vs veh, CAPN2 / RFU, MED14 / Fold change vs veh, MED14 / RFU, SNORA58 / Fold change vs veh, SNORA58 / RFU, C1orf63 / Fold change vs veh, C1orf63 / RFU, LRRFIP1 / Fold change vs veh, LRRFIP1 / RFU, NDUFAF7 / Fold change vs veh, NDUFAF7 / RFU, SLC12A2 / Fold change vs veh, SLC12A2 / RFU, IBTK / Fold change vs veh, IBTK / RFU, ESF1 / Fold change vs veh, ESF1 / Fold change vs veh, TMEM50B / RFU, TAOK1 / Fold change vs veh, TAOK1 / RFU, ACBD3 / Fold change vs veh, ACBD3 / RFU, TMA16 / Fold change vs veh, TMA16 / RFU, RWDD3 / Fold change vs veh, RWDD3 / RFU, BCAT1 / Fold change vs veh, BCAT1 / RFU, EDEM3 / Fold change vs veh, EDEM3 / RFU, TMEM33 / Fold change vs veh, TMEM33 / RFU, WDR75 / Fold change vs veh, WDR75 / RFU, AHCTF1 / Fold change vs veh, AHCTF1 / RFU, TFRC / Fold change vs veh, TFRC / RFU, ZDHHC17 / Fold change vs veh, ZDHHC17 / RFU, NOM1 / Fold change vs veh, NOM1 / RFU, ARL8B / Fold change vs veh, ARL8B / RFU, ZBTB11 / Fold change vs veh, ZBTB11 / RFU, TAMM41 / Fold change vs veh, TAMM41 / RFU, KIAA1704 /// LOC100996395 / Fold change vs veh, KIAA1704 /// LOC100996395 / RFU, ING1 / Fold change vs veh, ING1 / RFU, TRMT61B / Fold change vs veh, TRMT61B / RFU, FUBP3 / Fold change vs veh, FUBP3 / RFU, TP53 / Fold change vs veh, TP53 / RFU, TNKS2 / Fold change vs veh, TNKS2 / RFU, ZFP14 / Fold change vs veh, ZFP14 / RFU, ACTR2 / Fold change vs veh, ACTR2 / RFU, PPP3R1 / Fold change vs veh, PPP3R1 / RFU, PIK3R1 / Fold change vs veh, PIK3R1 / RFU, HNRNPA1 / Fold change vs veh, HNRNPA1 / RFU, RNF170 / Fold change vs veh, RNF170 / RFU, ZNF28 / Fold change vs veh, ZNF28 / RFU, RNGTT / Fold change vs veh, RNGTT / RFU, OGT / Fold change vs veh, OGT / RFU, BRD1 / Fold change vs veh, BRD1 / RFU, MARS / Fold change vs veh, MARS / RFU, ZNF655 / Fold change vs veh, ZNF655 / RFU, FAHD1 / Fold change vs veh, FAHD1 / RFU, BDP1 / Fold change vs veh, BDP1 / RFU, LRRCC1 / Fold change vs veh, LRRCC1 / RFU, ARID1A / Fold change vs veh, ARID1A / RFU, ZNF146 / Fold change vs veh, ZNF146 / RFU, ZNF330 / Fold change vs veh, ZNF330 / RFU, GPN3 / Fold change vs veh, GPN3 / RFU, C9orf123 / Fold change vs veh, C9orf123 / RFU, N4BP2L2 / Fold change vs veh, N4BP2L2 / RFU, ARFIP1 / Fold change vs veh, ARFIP1 / RFU, FAM179B / Fold change vs veh, FAM179B / RFU, BCL10 / Fold change vs veh, BCL10 / RFU, UHRF1BP1L / Fold change vs veh, UHRF1BP1L / RFU, BET1 / Fold change vs veh, BET1 / RFU, CNOT2 / Fold change vs veh, CNOT2 / RFU, ZNF268 / Fold change vs veh, ZNF268 / Fold change vs veh, ZNF507 / RFU, DGCR2 / Fold change vs veh, DGCR2 / RFU, WDSUB1 / Fold change vs veh, WDSUB1 / Fold change vs veh, HSP90B1 /// MIR3652 / RFU, ADSS / Fold change vs veh, ADSS / RFU, GK / Fold change vs veh, GK / RFU, ZNF148 / Fold change vs veh, ZNF148 / RFU, TAF9 / Fold change vs veh, TAF9 / RFU, SLC1A5 / Fold change vs veh, SLC1A5 / RFU, SLMO2 / Fold change vs veh, SLMO2 / RFU, ABCC4 / Fold change vs veh, ABCC4 / RFU, LOC101060439 /// RAP1B / Fold change vs veh, LOC101060439 /// RAP1B / RFU, RFX7 / Fold change vs veh, RFX7 / RFU, GTPBP10 / Fold change vs veh, GTPBP10 / RFU, CNEP1R1 / Fold change vs veh, CNEP1R1 / RFU, BIVM-ERCC5 /// ERCC5 / Fold change vs veh, BIVM-ERCC5 /// ERCC5 / RFU, ILF3 / Fold change vs veh, ILF3 / RFU 11762660_at / Fold change /veh 11762660_at / RFU VCAN (11757783_s_at) / Fold change /veh VCAN (11757783_s_at) / RFU DDX43 (11728927_at) / Fold change /veh DDX43 (11728927_at) / RFU KRT8 (11758188_x_at) / Fold change /veh KRT8 (11758188_x_at) / RFU NKD1 (11759106_at) / Fold change /veh NKD1 (11759106_at) / RFU SRD5A1 (11742802_a_at) / Fold change /veh SRD5A1 (11742802_a_at) / RFU TPSAB1 /// TPSB2 (11721975_s_at) / Fold change /veh TPSAB1 /// TPSB2 (11721975_s_at) / RFU GSTM3 (11746129_a_at) / Fold change /veh GSTM3 (11746129_a_at) / RFU IL23R (11737362_x_at) / Fold change /veh IL23R (11737362_x_at) / RFU TMEM51 (11727254_a_at) / Fold change /veh TMEM51 (11727254_a_at) / RFU PIWIL2 (11732686_x_at) / Fold change /veh PIWIL2 (11732686_x_at) / RFU ORM1 (11744905_x_at) / Fold change /veh ORM1 (11744905_x_at) / RFU CCDC152 (11743942_at) / Fold change /veh CCDC152 (11743942_at) / RFU ECM1 (11717891_a_at) / Fold change /veh ECM1 (11717891_a_at) / RFU IL23R (11748794_a_at) / Fold change /veh IL23R (11748794_a_at) / RFU TNFAIP8L3 (11732012_x_at) / Fold change /veh TNFAIP8L3 (11732012_x_at) / RFU MBOAT4 (11741988_at) / Fold change /veh MBOAT4 (11741988_at) / RFU 11764193_at / Fold change /veh 11764193_at / RFU TMEM53 (11763286_at) / Fold change /veh TMEM53 (11763286_at) / RFU MAGEB2 (11727129_at) / Fold change /veh MAGEB2 (11727129_at) / RFU TMEM200A (11744735_a_at) / Fold change /veh TMEM200A (11744735_a_at) / RFU CCDC152 (11751479_a_at) / Fold change /veh CCDC152 (11751479_a_at) / RFU FAM211A (11726209_a_at) / Fold change /veh FAM211A (11726209_a_at) / RFU RGS16 (11746705_a_at) / Fold change /veh RGS16 (11746705_a_at) / RFU VCAN (11755009_s_at) / Fold change /veh VCAN (11755009_s_at) / RFU RHOB (11743442_s_at) / Fold change /veh RHOB (11743442_s_at) / RFU RGS16 (11720943_a_at) / Fold change /veh RGS16 (11720943_a_at) / RFU RGS16 (11720944_at) / Fold change /veh RGS16 (11720944_at) / RFU, VPS4B / Fold change vs veh, VPS4B / RFU, CREB1 / Fold change vs veh, CREB1 / RFU, DNAJC13 / Fold change vs veh, DNAJC13 / RFU, GNAQ / Fold change vs veh, GNAQ / RFU, CDK5R1 / Fold change vs veh, CDK5R1 / RFU, ZRANB3 / Fold change vs veh, ZRANB3 / RFU, CUL4A / Fold change vs veh, CUL4A / RFU, CCNY / Fold change vs veh, CCNY / RFU, UFL1 / Fold change vs veh, UFL1 / RFU, COG3 / Fold change vs veh, COG3 / RFU, DIAPH2 / Fold change vs veh, DIAPH2 / RFU, SKA2 / Fold change vs veh, SKA2 / RFU, AFF3 / Fold change vs veh, AFF3 / RFU, LMF1 / Fold change vs veh, LMF1 / RFU, IPO11 / Fold change vs veh, IPO11 / RFU, DFFB / Fold change vs veh, DFFB / RFU, FOXP1 / Fold change vs veh, FOXP1 / RFU, CARD8 / Fold change vs veh, CARD8 / RFU, STRN3 / Fold change vs veh, STRN3 / RFU, ADK / Fold change vs veh, ADK / RFU, RASSF2 / Fold change vs veh, RASSF2 / RFU, WIPF1 / Fold change vs veh, WIPF1 / RFU, LARP1B / Fold change vs veh, LARP1B / RFU, RASA1 / Fold change vs veh, RASA1 / RFU, RB1 / Fold change vs veh, RB1 / RFU, PPFIA1 / Fold change vs veh, PPFIA1 / RFU, MAT2A / Fold change vs veh, MAT2A / RFU, CCT5 / Fold change vs veh, CCT5 / RFU, WDR92 / Fold change vs veh, WDR92 / RFU, CUX1 / Fold change vs veh, CUX1 / RFU, TTC7A / Fold change vs veh, TTC7A / RFU, TMEM135 / Fold change vs veh, TMEM135 / RFU, DEPTOR / Fold change vs veh, DEPTOR / RFU, CPM / Fold change vs veh, CPM / RFU, DNAJB6 / Fold change vs veh, DNAJB6 / RFU, CACNA2D3 / Fold change vs veh, CACNA2D3 / RFU, DTX4 / Fold change vs veh, DTX4 / RFU, TFCP2 / Fold change vs veh, TFCP2 / RFU, GMCL1 /// GMCL1P1 / Fold change vs veh, GMCL1 /// GMCL1P1 / RFU, AEBP2 / Fold change vs veh, AEBP2 / RFU, SNHG1 /// SNORD22 /// SNORD25 /// SNORD26 /// SNORD27 /// SNORD28 /// SNORD29 /// SNORD31 / Fold change vs veh, SNHG1 /// SNORD22 /// SNORD25 /// SNORD26 /// SNORD27 /// SNORD28 /// SNORD29 /// SNORD31 / Fold change (Aza/veh), C12orf56 (ProbeSet 11735607_a_at) / Fold change (ACY-1035/veh), C12orf56 (ProbeSet 11735607_a_at) / Fold change (Aza/veh), FGFR1OP (ProbeSet 11751329_s_at) / Fold change (ACY-1035/veh), FGFR1OP (ProbeSet 11751329_s_at) / Fold change (Aza/veh), VPS36 (ProbeSet 11739960_a_at) / Fold change (ACY-1035/veh), VPS36 (ProbeSet 11739960_a_at) / RFU SYPL1 (11715823_x_at) / Fold change /veh SYPL1 (11715823_x_at) / RFU IGFBP7 (11715501_s_at) / Fold change /veh IGFBP7 (11715501_s_at) / RFU REEP3 (11722064_at) / Fold change /veh REEP3 (11722064_at) / RFU IGLL1 (11728026_x_at) / Fold change /veh IGLL1 (11728026_x_at): dose or concentration left out as unconfirmed
Settings: ProbeSet 11744854_x_at; LIST B

SMILES: Nc1ncn([C@@H]2O[C@H](CO)[C@@H](O)[C@H]2O)c(=O)n1 [azacitidine]
- RFU, ZNF28: 60.82 RFU
